Test results: paper PMC5467912, “Asymmetric regulation of quorum-sensing receptors drives autoinducer-specific gene expression programs in Vibrio cholerae” (PLoS Genetics, 2017)
Values joined by “and” are separate entries in the source; they are usually repeats but may differ in a detail not shown here. Equal values may be shown once.

Tested on: CqsS-mKATE2
Experiment: Qrr4 regulation of CqsS-mKATE2 translational fusion, anhydrous tetracycline-inducible qrr4 (S4 Fig)
Format: cell-based, E. coli
Source text: We examined whether Qrr regulation of CqsS is direct or indirect using a CqsS-mKATE2 translational fusion in E. coli expressing inducible qrr4. We reasoned that, if CqsS production is controlled by Qrr4, repression of CqsS-mKATE2 should occur when Qrr4 is induced. We verified that our system works by showing that inducible Qrr4 is capable of repressing a previously-identified direct target, VCA0107-GFP [24]. However, no repression of CqsS-mKATE2 occurred following induction of Qrr4 (S4 Fig).
To assay qrr4 regulation of cqsS, the relative fluorescence of translational fusions (VCA0107B-GFP and CqsS-mKATE2) was measured in E. coli BWR1. E. coli carrying one of these plasmids also contained either an empty plasmid (pZA31) or pZA31 carrying anhydrous tetracycline-inducible qrr4. Qrr4-mediated repression of CqsS-mKATE2 was assessed. VCA0107-GFP is a known Qrr4-repressed target and was used as a positive control to show the system was functional. Overnight cultures were diluted 1:50 into fresh medium and aliquotted in triplicate into 96 well plates. […] OD600 and fluorescence were assessed using an Envision 2103 Multilabel Reader (Perkin Elmer).
Supplementary file pgen.1006826.s008.tiff: S4 Fig Qrr4 indirectly regulates cqsS. Fluorescence from plasmid-encoded VCA0107-GFP (circles) and CqsS-mKATE2 (squares) was measured in E. coli. Either an empty vector (pZA31-lucNB, black) or pZA31-lucNB carrying tetracycline-inducible qrr4 (pYS245, red) was present in each strain. VCA0107 encodes a type VI secretion system component that is regulated by Qrr4. Data represent two experiments conducted in triplicate. Error bars represent standard errors of the mean. (TIFF) Click here for additional data file.

Cc1c2c(c(O)c3c(O)cccc13)C(=O)[C@]1(O)C(=O)C(C(N)=O)=C(O)[C@@H](N(C)C)[C@@H]1C2 [aTc]
Relative reporter signal, experimental averages (pCqsS Qrr4, aTc 0.0976562 ng/ml (normalization point)): 1
Relative reporter signal, experimental averages (pCqsS Qrr4, aTc 0.195312 ng/ml, normalized to 0.0976562 ng/ml): 0.9161 and 1.022 and 1.111
Relative reporter signal, experimental averages (pCqsS Qrr4, aTc 0.390625 ng/ml, normalized to 0.0976562 ng/ml): 0.9447 and 1.099 and 1.082
Relative reporter signal, experimental averages (pCqsS Qrr4, aTc 0.78125 ng/ml, normalized to 0.0976562 ng/ml): 0.9451 and 1.129 and 1.056
Relative reporter signal, experimental averages (pCqsS Qrr4, aTc 1.5625 ng/ml, normalized to 0.0976562 ng/ml): 1.068 and 1.16 and 0.9801
Relative reporter signal, single replicates (pCqsS Qrr4, aTc 3.125 ng/ml): 1.44 and 0.9097 and 1.127 and 0.956
Relative reporter signal, experimental averages (pCqsS Qrr4, aTc 3.125 ng/ml, normalized to 0.0976562 ng/ml): 1.078 and 1.159 and 0.9843
Relative reporter signal, single replicates (pCqsS Qrr4, aTc 6.25 ng/ml): 1.264 and 1.158 and 1.22 and 0.881 and 1.097 and 1.0668 and 1.093 and 0.9121 and 1.019
Relative reporter signal, experimental averages (pCqsS Qrr4, aTc 6.25 ng/ml, normalized to 0.0976562 ng/ml): 1.008 and 1.214 and 1.015
Relative reporter signal, single replicates (pCqsS Qrr4, aTc 12.5 ng/ml): 1.4702 and 1.295 and 1.361 and 0.8302 and 0.9914 and 0.8969 and 1.079 and 1.208 and 0.9918
Relative reporter signal, experimental averages (pCqsS Qrr4, aTc 12.5 ng/ml, normalized to 0.0976562 ng/ml): 1.093 and 1.376 and 0.9062
Relative reporter signal, single replicates (pCqsS Qrr4, aTc 25 ng/ml): 1.547 and 1.293 and 1.267 and 0.9302 and 0.911 and 0.8369 and 1.15 and 1.125 and 1.107
Relative reporter signal, experimental averages (pCqsS Qrr4, aTc 25 ng/ml, normalized to 0.0976562 ng/ml): 1.127 and 1.369 and 0.8927
Relative reporter signal, single replicates (pCqsS Qrr4, aTc 50 ng/ml): 1.539 and 1.282 and 1.3008 and 0.9601 and 0.9046 and 0.8156 and 1.287 and 1.24 and 0.9722
Relative reporter signal, experimental averages (pCqsS Qrr4, aTc 50 ng/ml, normalized to 0.0976562 ng/ml): 1.167 and 1.374 and 0.8934
Relative reporter signal, single replicates (pCqsS Qrr4, aTc 100 ng/ml): 1.525 and 1.187 and 1.2288 and 1.039 and 0.9388 and 0.8346 and 1.105 and 1.41 and 1.043
Relative reporter signal, experimental averages (pCqsS Qrr4, aTc 100 ng/ml, normalized to 0.0976562 ng/ml): 1.186 and 1.313 and 0.9374
Relative reporter signal, single replicates (pCqsS Qrr4, aTc 200 ng/ml): 1.816 and 1.134 and 1.357 and 1.246 and 1.145 and 0.8992 and 1.196 and 1.432 and 1.656
Relative reporter signal, experimental averages (pCqsS Qrr4, aTc 200 ng/ml, normalized to 0.0976562 ng/ml): 1.428 and 1.436 and 1.096
Relative reporter signal, experimental averages (pCqsS vector, aTc 0.0976562 ng/ml (normalization point)): 1
Relative reporter signal, experimental averages (pCqsS vector, aTc 0.195312 ng/ml, normalized to 0.0976562 ng/ml): 1.035 and 0.9136
Relative reporter signal, experimental averages (pCqsS vector, aTc 0.390625 ng/ml, normalized to 0.0976562 ng/ml): 1.0872 and 0.9606
Relative reporter signal, experimental averages (pCqsS vector, aTc 0.78125 ng/ml, normalized to 0.0976562 ng/ml): 0.9727 and 0.9156
Relative reporter signal, experimental averages (pCqsS vector, aTc 1.5625 ng/ml, normalized to 0.0976562 ng/ml): 1.033 and 0.9687
Relative reporter signal, single replicates (pCqsS vector, aTc 3.125 ng/ml): 1.095 and 1.006 and 1.033 and 1.049 and 1.037 and 0.9455
Relative reporter signal, experimental averages (pCqsS vector, aTc 3.125 ng/ml, normalized to 0.0976562 ng/ml): 1.045 and 1.01
Relative reporter signal, single replicates (pCqsS vector, aTc 6.25 ng/ml): 1.025 and 0.9971 and 1.015 and 1.078 and 0.9309 and 0.9316
Relative reporter signal, experimental averages (pCqsS vector, aTc 6.25 ng/ml, normalized to 0.0976562 ng/ml): 1.0121 and 0.9801
Relative reporter signal, single replicates (pCqsS vector, aTc 12.5 ng/ml): 1 and 0.9215 and 1.059 and 1.011 and 1.014 and 0.8976
Relative reporter signal, experimental averages (pCqsS vector, aTc 12.5 ng/ml, normalized to 0.0976562 ng/ml): 0.9936 and 0.9741
Relative reporter signal, single replicates (pCqsS vector, aTc 25 ng/ml): 0.9696 and 0.9738 and 0.9202 and 1.059 and 1.016 and 0.9126
Relative reporter signal, experimental averages (pCqsS vector, aTc 25 ng/ml, normalized to 0.0976562 ng/ml): 0.9545 and 0.9958
Relative reporter signal, single replicates (pCqsS vector, aTc 50 ng/ml): 0.9232 and 0.9361 and 1.0359 and 1.102 and 1.073 and 0.9182
Relative reporter signal, experimental averages (pCqsS vector, aTc 50 ng/ml, normalized to 0.0976562 ng/ml): 0.965 and 1.031
Relative reporter signal, single replicates (pCqsS vector, aTc 100 ng/ml): 0.9506 and 0.9792 and 0.9909 and 1.135 and 1.123 and 0.9303
Relative reporter signal, experimental averages (pCqsS vector, aTc 100 ng/ml, normalized to 0.0976562 ng/ml): 0.9736 and 1.063
Relative reporter signal, single replicates (pCqsS vector, aTc 200 ng/ml): 1.017 and 1.029 and 1.01 and 1.335 and 1.085 and 1.09
Relative reporter signal, experimental averages (pCqsS vector, aTc 200 ng/ml, normalized to 0.0976562 ng/ml): 1.019 and 1.17
